In patent US20230181512A1, “METHODS FOR THE TREATMENT OF INFANTILE SPASMS USING MEDIUM CHAIN TRIGLYCERIDES” (Cerecin Inc., priority 2020, published 2023):
“Also recorded” adds a separate entry of the source. Like-named read-outs stand apart in the source and are kept apart here.

Assays:
[1] = tested on: Infantile spasms (IS) patients; conditions: cited from earlier work
[2] = cited from earlier work; for adverse events (AEs) associated with treatment: IS treatment, refs [32], [1]
[3] = tested on: rat triple hit model of IS; experiment: Rat triple hit model of IS (DOX, LPS, PCPA): spasm frequency; format: in vivo, Sprague Dawley rats; conditions: for spasms/hr / spasms/hour: P5-P7, scored on P7; for spasms/hour: vehicle/milk only mean 4.5 (SD 2.3)
Source text: Various animal models of IS have been created as tools to test efficacy of various interventions. One such example is a rat triple hit model developed by Scantlebury and co-authors. This model was developed “based on evidence that structural or functional abnormalities in cortical or subcortical structures may be necessary to produce IS.” [11]. The model uses three lesions to induce infantile spasms. The lesions include doxorubicin (DOX), lipopolysaccharide (LPS) and p-chlorophenylalanine (PCPA). DOX is an inhibitor of topo isomerase 2 that results in diffuse brain damage involving the forebrain and brainstem when injected intraventricularly. LPS can stimulate the release of inflammatory cytokines in various cell types, leading to an acute inflammatory response. Intracerebral injection of LPS in rat pups activates inflammatory cascades resulting in hypomyelination, white matter rarefaction and necrosis. PCPA depletes serotonin by inhibiting the enzyme tryptophan hydroxylase.
In accordance with embodiments of the disclosure, tricaprilin was tested for its ability to reduce spasm frequency in this triple hit model. These studies were done using timed pregnant Sprague Dawley rats. Animals were maintained in a 12 hr light/dark cycle and had free access to food and water. The day of birth was considered as P0. Animal care and use conformed to institutional policy and guidelines of the American Association for the Accreditation of Laboratory Animal Care. All procedures and experiments were performed in accordance with the National Institute of Health Guide for the Care and Use of Laboratory Animals.
At postnatal day (P) 3 DOX (5 μg/2.5 μl) and LPS (3 μg/1.5 μl) were given intracerebrally and at P5 PCPA is given intraperitoneally (i.p.) (200 mg/kg). Intracerebral infusions of DOX and LPS were done stereotaxically under isoflurane anesthesia. Pups were positioned in a stereotaxic frame for neonatal rat surgery (Benchmark Angle One, MyNeurolab.com, St Louis Mo.). DOX was injected into the right lateral ventricle followed by LPS into the right parietal cortex. Pups were individually placed in beakers warmed in a water bath and filled with bedding (31-33° C.) and fed via a cheek cannula. Spasms begin at day P4 and continue to P13.
Tricaprilin was administered either by oral gavage (administered twice a day), or steadily in milk via the cheek cannula, from P5-P7. […] For gavage, tricaprilin was administered at 5 ml/kg/day and 10 ml/kg/day. When mixed with milk, tricaprilin was administered at 5, 10 and 30 ml/kg/day. Each group comprised 5 animals. Spasms were recorded and scored on P7, urine ketones collected on P7 at 6 and 12 hours after gavage and same timepoints for milk fed pups. The behaviors of the pups were monitored using a video camera for 2 hours twice daily from P4 (first post-operative day) until P20.
The frequency of spasms varied by concentration of tricaprilin used. […] With reference to FIG. 2B, when tricaprilin was mixed with milk at 5 ml/kg/day spasms/hr were 3.1 (SD 1.7, pvalue=0.300), at 10 ml/kg/day 3.0 (SD 0.8, pvalue=0.139), and at 30 ml/kg/day 1.75 (SD 1.7, pvalue 0.079).

C[C@]12C=CC(=O)C=C1CC[C@@H]1[C@@H]2[C@@H](O)C[C@@]2(C)[C@H]1CC[C@]2(O)C(=O)CO [Prednisolone]
% of patient spasms stopped ([1]; 40-60 mg/day, N 30, ref [17]): 70%

C[C@]12C=CC(=O)C=C1CC[C@@H]1[C@@H]2C(=O)C[C@@]2(C)[C@H]1CC[C@]2(O)C(=O)CO [Prednisone]
% of patient spasms stopped ([1]; 2 mg/kg/day, N 12, ref [19]): 33%

C=CC(N)CCC(=O)O (stereo not drawn) [VGB, Vigabatrin]
% of patient spasms stopped ([1]; 18-36 mg/kg/day, N 75, ref [18]): 11%
% of patient spasms stopped ([1]; 100-148 mg/kg/day, N 67, ref [18]): 36%
% of patient spasms stopped ([1]; 100-150 mg/kg/day, N 52, ref [17]): 54%
adverse events (AEs) associated with treatment [2]: sedation, irritability, insomnia and hypotonia
visual field defects ([2]; persist even with discontinuation of the drug, ref [1]): serious visual field defects that are permanent

CCCCCCCC(=O)OCC(COC(=O)CCCCCCC)OC(=O)CCCCCCC [tricaprilin]
spasms/hr ([3]; mixed with milk 5 ml/kg/day, SD 1.7, pvalue=0.300): 3.1 spasms/hr
spasms/hr ([3]; mixed with milk 10 ml/kg/day, SD 0.8, pvalue=0.139): 3.0 spasms/hr
spasms/hr ([3]; mixed with milk 30 ml/kg/day, SD 1.7, pvalue 0.079): 1.75 spasms/hr
spasms/hour ([3]; oral gavage 5 ml/kg/day, SD 1.6, pvalue 0.155): 2.3 spasms/hour
spasms/hour ([3]; oral gavage 10 ml/kg, SD 0.9, pvalue=0.036): 1.4 spasms/hour
effect on spasms compared to vehicle (in words) ([3]; oral gavage and feeding in milk): reduction in spasms/hr; also recorded: reduces spasms

Adrenocorticotropic hormone (SYSMEHFRWGKPVGKKRRPVKVYPNGAEDESAEAFPLEF; Corticotropin; UniProt P01189 138-176, looked up) [ACTH, first line hormonal therapy for IS]
% of patient spasms stopped ([1]; 20-20 IU/day, N 24, ref [16]): 58%
% of patient spasms stopped ([1]; 150 IU/m2/day divided B.I.D., N 15, ref [13]): 93%
% of patient spasms stopped ([1]; 150 IU/m2/day, N 26, ref Hrachovy, 1994 #681}): 50%
subjects responded with both clinical cessation of spasms and abolition of hypsarrhythmia on EEG ([1]; high-dose natural ACTH 150 IU/m2/day given twice daily, 2 weeks then taper, Baram et al. [13]): 87%
adverse events (AEs) associated with treatment [2]: hypertension, immune suppression, infection, electrolyte imbalances, GI disturbances, ocular opacities, hypertrophic cardiomyopathy, cerebral atrophy and growth impairment
